Structures are written as SMILES. A value given as a limit tells only on which side of the number the result lay.

Data set [1] can be described thus: Plasma clearance in iv dosed rat.
The nature of data set [2]: Mean residence time in iv dosed rat. The format is ADME, organism-based. As to conditions: in vivo.
Data set [3] has as its target Coagulation factor VII/tissue factor (Homo sapiens, UniProt P08709). In words: Binding affinity to factor7a/TF complex. The format is protein-complex assay.
Data set [4] in a line: Bioavailability in sc dosed rat. The format is ADME, organism-based. The conditions noted are these: in vivo.

Coagulation factor VII/tissue factor, sequence (P08709 61-212 limits assumed): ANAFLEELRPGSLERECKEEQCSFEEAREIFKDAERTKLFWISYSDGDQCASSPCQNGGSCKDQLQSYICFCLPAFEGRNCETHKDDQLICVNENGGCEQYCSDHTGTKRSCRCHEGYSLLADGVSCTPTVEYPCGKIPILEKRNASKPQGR
Coagulation factor VII/tissue factor, sequence (P08709 213-466 limits assumed): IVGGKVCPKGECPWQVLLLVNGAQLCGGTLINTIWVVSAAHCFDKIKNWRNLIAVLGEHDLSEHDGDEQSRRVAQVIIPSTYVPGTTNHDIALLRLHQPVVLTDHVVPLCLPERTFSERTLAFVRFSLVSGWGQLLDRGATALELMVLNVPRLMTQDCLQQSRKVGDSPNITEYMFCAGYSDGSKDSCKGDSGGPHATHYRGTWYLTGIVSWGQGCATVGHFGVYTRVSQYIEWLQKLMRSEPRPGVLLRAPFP
Coagulation factor VII/tissue factor, sequence (P13726 33-295 partner limits assumed): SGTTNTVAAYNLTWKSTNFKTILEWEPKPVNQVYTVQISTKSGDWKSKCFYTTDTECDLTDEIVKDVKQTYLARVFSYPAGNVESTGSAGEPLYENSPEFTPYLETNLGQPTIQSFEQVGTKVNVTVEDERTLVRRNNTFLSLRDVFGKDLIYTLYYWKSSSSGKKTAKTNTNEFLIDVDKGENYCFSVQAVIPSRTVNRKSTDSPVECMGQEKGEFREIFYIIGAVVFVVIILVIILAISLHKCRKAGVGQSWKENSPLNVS

As for `N=C(N)c1ccc2[nH]c(-c3cc(CC(CC(=O)O)C(=O)O)cc(-c4cc(F)ccc4O)c3O)nc2c1` (centres undefined), the clearance (in general, a measure of how efficiently the substance is removed, as volume per time) in data set [1] was found to be 2.6 mL/min/kg. The MRT – broadly, the average time that molecules of a dose stay in the body – in data set [2] was below 1 h. Further, in data set [3], the inhibition constant Ki (usually the equilibrium dissociation constant of an inhibitor or competing ligand from its target) was found to be 4 nM.
Take `N=C(N)c1ccc2[nH]c(-c3cc(C(CC(=O)O)CC(=O)O)cc(-c4cccc([N+](=O)[O-])c4)c3O)cc2c1`: the MRT in data set [2] came out at 1.5 h. The same compound gave a Ki in data set [3] of 13 nM.
Turning to `N=C(N)c1ccc2[nH]c(-c3cc(CC(=O)O)cc(-c4cc(F)ccc4O)c3O)nc2c1`, the clearance in data set [1] worked out at 8.1 mL/min/kg. This compound yielded an MRT in data set [2] below 1 h. In data set [3], the inhibitory constant (Ki) amounted to 2 nM.
Regarding `N=C(N)c1ccc2nc(-c3cc(C(CCC(=O)O)C(=O)O)cc(-c4cccc([N+](=O)[O-])c4)c3O)[nH]c2c1` (centres undefined), the mean residence time MRT in data set [2] came to 5 h. Also, the Ki in data set [3] turned out to be 17 nM.
`N=C(N)c1ccc2nc(-c3cc(CC(=O)O)cc(-c4cccc([N+](=O)[O-])c4)c3O)[nH]c2c1`: the MRT in data set [2] was below 1 h. This compound also registered a Ki in data set [3] of 15 nM.
As to `N=C(N)c1ccc2[nH]c(-c3cc(C(CC(=O)O)C(=O)O)cc(-c4cc(F)ccc4O)c3O)nc2c1` (centres undefined), in data set [2], the MRT stood at 9 h. Moreover, the bioavailability – broadly, the share of a dose that reaches the circulation, judged against a reference dose that is usually intravenous – in data set [4] was above 90%. The compound also showed a Ki in data set [3] of 4 nM.
As to `N=C(N)c1ccc2nc(-c3cc(C(CC(=O)O)CC(=O)O)cc(-c4cccc([N+](=O)[O-])c4)c3O)[nH]c2c1`, the affinity in data set [3], expressed as Ki, was 36 nM.
In data set [2], `N=C(N)c1ccc2nc(-c3cc(CC(C(=O)O)C(=O)O)cc(-c4cccc([N+](=O)[O-])c4)c3O)[nH]c2c1` returned an MRT below 1 h. In addition, the Ki in data set [3] is 21 nM.
Consider `N=C(N)c1ccc2[nH]c(-c3cc(C(CC(=O)O)C(=O)O)cc(-c4cccc([N+](=O)[O-])c4)c3O)nc2c1` (centres undefined), for which the clearance in data set [1] came to 0.04 mL/min/kg. For the same compound, the MRT in data set [2] was above 24 h. In addition, the Ki in data set [3] is 22 nM.
On to `N=C(N)c1ccc2[nH]c(-c3cc(C(CC(=O)O)C(=O)O)cc(-c4cccc([N+](=O)[O-])c4)c3O)cc2c1` (centres undefined), for which the MRT in data set [2] was above 24 h. For the same compound, in data set [3], affinity was put at a Ki of 1 nM.
As to `N=C(N)c1ccc2[nH]c(-c3cc(CC(=O)O)cc(-c4cccc([N+](=O)[O-])c4)c3O)cc2c1`, the MRT in data set [2] is below 1 h.
